Experimental data as given in ChEMBL document CHEMBL1131902, “Reversal of resistance in multidrug resistance protein (MRP1)-overexpressing cells by LY329146” (Bioorg Med Chem Lett, 1999).
Converted amounts (≈) assume the structure as drawn.

Legend:
[1] = system: HL-60; assay: Ability to inhibit 50 nM Leukotriene C4 (LTC4) uptake into HL60/ADR membrane vesicles; format: functional, cell-based; details: Homo sapiens
[2] = system: HeLa; assay: Cytotoxicity tested against Hela C1 cells at 2.5 uM dose of LY-329146; format: functional, cell-based; details: Homo sapiens
[3] = system: HeLa; assay: Cytotoxicity tested against Hela C1 cells at 1 uM dose of LY-329146; format: functional, cell-based; details: Homo sapiens
[4] = system: HL-60; assay: Cytotoxicity tested against drug resistant HL60/ADR cell line at 5 uM dose of LY-329146; format: functional, cell-based; details: Homo sapiens
[5] = system: HL-60; assay: Cytotoxicity against HL60/Vinc cell line at 0.5 uM dose of LY-329146; format: functional, cell-based; details: Homo sapiens
[6] = system: HL-60; assay: Cytotoxicity tested against HL60/Vinc cell line at 1 uM dose of LY-329146 at 1 uM; format: functional, cell-based; details: Homo sapiens
[7] = system: HL-60; assay: Cytotoxicity tested against HL60/Vinc cell line at 5 uM dose of LY-329146; format: functional, cell-based; details: Homo sapiens
[8] = system: HeLa; assay: Cytotoxicity tested against Hela T5 cells at 2.5 uM dose of LY-329146; format: functional, cell-based; details: Homo sapiens
[9] = system: HL-60; assay: Cytotoxicity against drug resistant HL60/ADR cell line at 1 uM dose of LY-329146; format: functional, cell-based; details: Homo sapiens
[10] = system: HL-60; assay: Cytotoxicity tested against drug sensitive HL60/S cell line at 1 uM dose of LY-329146; format: functional, cell-based; details: Homo sapiens
[11] = system: HeLa; assay: Cytotoxicity tested against Hela T5 cells at 1 uM dose of LY-329146; format: functional, cell-based; details: Homo sapiens
[12] = system: HL-60; assay: Cytotoxicity tested against drug sensitive HL60/S cell line at 5 uM dose of LY-329146; format: functional, cell-based; details: Homo sapiens
[13] = system: HL-60; assay: Cytotoxicity tested against drug resistant HL60/ADR cell line at 0.5 uM dose of LY-329146; format: functional, cell-based; details: Homo sapiens
[14] = system: HL-60; assay: Cytotoxicity against drug sensitive HL60/S cell line at 0.5 uM dose of LY-329146; format: functional, cell-based; details: Homo sapiens
[15] = system: HL-60; assay: Cytotoxicity tested against drug resistant HL60/ADR cell line at 5 uM dose of LY-117018; format: functional, cell-based; details: Homo sapiens
[16] = system: HL-60; assay: Cytotoxicity tested against drug resistant HL60/ADR cell line at 1 uM dose of LY-117018; format: functional, cell-based; details: Homo sapiens
[17] = system: HL-60; assay: Ability to enhance the cytotoxicity of doxorubicin against […] HL60/ADR cell line expressed as reversal factor (RF) at 1 uM; format: functional, Homo sapiens
[18] = system: HL-60; assay: Ability to enhance the cytotoxicity of doxorubicin against […] HL60/ADR cell line expressed as reversal factor (RF) at 5 uM; format: functional, Homo sapiens
[19] = system: HeLa; assay: Ratio of IC50 of oncolytic and its modulator against Hela C1 cells at 2.5 uM dose of LY-329146; format: functional, Homo sapiens
[20] = system: HeLa; assay: Ratio of IC50 of oncolytic and its modulator against Hela C1 cells at 1 uM dose of LY-329146; format: functional, Homo sapiens
[21] = system: HeLa; assay: Ratio of IC50 of oncolytic and its modulator against Hela T5 cells at 2.5 uM dose of LY-329146; format: functional, Homo sapiens
[22] = system: HeLa; assay: Ratio of IC50 of oncolytic and its modulator against Hela T5 cells at 1 uM dose of LY-329146; format: functional, Homo sapiens
[23] = system: HL-60; assay: Cytotoxicity tested against HL60/Vinc cell line; format: functional, cell-based; details: Homo sapiens
[24] = system: HL-60; assay: Cytotoxicity tested against drug sensitive HL60/S cell line; format: functional, cell-based; details: Homo sapiens
[25] = system: HL-60; assay: Cytotoxicity against drug resistant HL60/ADR cell line; format: functional, cell-based; details: Homo sapiens
[26] = system: HeLa; assay: Cytotoxicity tested against Hela T5 cells; format: functional, cell-based; details: Homo sapiens
[27] = system: HeLa; assay: Cytotoxicity tested against Hela C1 cells; format: functional, cell-based; details: Homo sapiens

CS(=O)(=O)N(c1ccc(-c2sc3cc(O)ccc3c2C(=O)c2ccc(OCCN3CCCCC3)cc2)cc1)S(C)(=O)=O
IC50 [1]: 0.8 µg/mL (≈ 1.27 µM)

COc1cccc2c1C(=O)c1c(O)c3c(c(O)c1C2=O)C[C@@](O)(C(=O)CO)C[C@@H]3O[C@H]1C[C@H](N)[C@H](O)[C@H](C)O1.CS(=O)(=O)N(c1ccc(-c2sc3cc(O)ccc3c2C(=O)c2ccc(OCCN3CCCCC3)cc2)cc1)S(C)(=O)=O
IC50 [2]: 0.213 µg/mL | IC50 [3]: 0.315 µg/mL | IC50 [4]: 0.224 µg/mL | IC50 [5]: 1.44 µg/mL | IC50 [6]: 0.444 µg/mL | IC50 [7]: 0.027 µg/mL | IC50 [8]: 0.241 µg/mL | IC50 [9]: 1.11 µg/mL | IC50 [10]: 0.018 µg/mL | IC50 [11]: 1.06 µg/mL | IC50 [12]: 0.011 µg/mL | IC50 [13]: 1.71 µg/mL | IC50 [14]: 0.023 µg/mL

COc1cccc2c1C(=O)c1c(O)c3c(c(O)c1C2=O)C[C@@](O)(C(=O)CO)C[C@@H]3O[C@H]1C[C@H](N)[C@H](O)[C@H](C)O1.O=C(c1ccc(OCCN2CCCC2)cc1)c1c(-c2ccc(O)cc2)sc2cc(O)ccc12
IC50 [15]: 1 µg/mL | IC50 [16]: 3.2 µg/mL | RF [17]: 1 | RF [18]: 3

CC[C@]1(O)CC2CN(CCc3c([nH]c4ccccc34)[C@@](C(=O)OC)(c3cc4c(cc3OC)N(C=O)C3C45CCN4CC=C[C@@](CC)(C(OC(C)=O)[C@]3(O)C(=O)OC)[C@H]45)C2)C1.CS(=O)(=O)N(c1ccc(-c2sc3cc(O)ccc3c2C(=O)c2ccc(OCCN3CCCCC3)cc2)cc1)S(C)(=O)=O (some centres not stated)
IC50 [2]: 0.005 µg/mL | IC50 [3]: 0.007 µg/mL | IC50 [8]: 0.013 µg/mL | RF [19]: 2.8 | IC50 [11]: 0.031 µg/mL | RF [20]: 2 | RF [21]: 3.9 | RF [22]: 1.6

COc1cccc2c1C(=O)c1c(O)c3c(c(O)c1C2=O)C[C@@](O)(C(=O)CO)C[C@@H]3O[C@H]1C[C@H](N)[C@H](O)[C@H](C)O1 [DOXORUBICIN]
IC50 [23]: 1.88 µg/mL (≈ 3.46 µM) | IC50 [24]: 0.028 µg/mL (≈ 0.0515 µM) | IC50 [25]: 2.97 µg/mL (≈ 5.46 µM)

CN(C)C(=O)CCSC(SCCC(=O)O)c1cccc(/C=C/c2ccc3ccc(Cl)cc3n2)c1 (configuration not stated) [MK-571]
IC50 [1]: 0.5 µg/mL (≈ 0.971 µM)

CC[C@]1(O)C[C@H]2CN(CCc3c([nH]c4ccccc34)[C@@](C(=O)OC)(c3cc4c(cc3OC)N(C=O)[C@H]3[C@@](O)(C(=O)OC)[C@H](OC(C)=O)[C@]5(CC)C=CCN6CC[C@]43[C@@H]65)C2)C1 [VINCRISTINE]
IC50 [26]: 0.051 µg/mL (≈ 0.0618 µM) | IC50 [27]: 0.014 µg/mL (≈ 0.017 µM)
